Source: US20130281544A1, “HEPATOPROTECTANT ACTIVITY OF GARCINOL” (priority 2010, published 2013)

Tested on: carbon tetrachloride induced liver damage in rats
Assay: Bilirubin and serum enzymes ALT, AST, ALP in carbon tetrachloride induced liver damage
Assay type: in vivo, Male Wistar Rats
Settings: CCl4; for ALP percent change / ALT percent change / AST percent change / Bilirubin percent change / ALP / ALT / AST / Bilirubin: serum; for ALP / ALT / AST / Bilirubin: Mean ± SE
Method: Doses of Garcinol (GC) used for the study: 1.25, 2.5, 5, 10 mg/kg p.o.
Standard drug: Silymarin (50 mg/kg) p.o.
Liver injury was induced by administration of carbon tetrachloride (CCl4) mixed with liquid paraffin (5 fold dilution). Animals were given single dose of CCl4 at 1 ml/kg, p.o. followed by the administration of garcinol (Table 2). [(i) Bramanti G, Murmann W, Pierini P and Comporti M (1978). Effect of cicloxilic acid on CCl4-induced liver injury. Drug Research 28: 1112-1217. (ii) B Singh, A K Saxena, B K Chandan, K K Anand (1998). Hepatoprotective activity of Verbenalin on experimental liver damage in rodents. Fitoterapia LXIX 2: 135-140. (iii) B. K. Chandan, A. K. Sharma, K. K. Anand Boerhaavia difiusa: A study of its hepatoprotective activity. Journal of Ethnopharmacology, Volume 31, Issue 3, March 1991, Pages 299-307].
Blood was collected from the retro-orbital plexus of experimental animals and no anti-coagulant was added. Blood was made to stand at room temperature for 1 hour. It was then centrifuged and clear serum was separated. The serum was then stored for analysis. Reference: (Magari et al., 2004).
(ASPARTATE AMINOTRANSFERASE and ALANINE AMINOTRANSFERASE), Reference: Ritman S, Frankel S, (1957). A colorimeteric method for the determination of serum glutamic oxaloacetic and glutamic pyruvic transaminases. American Journal of Clinical Pathology; 28: 56-63.
0.2 ml of serum, collected from test and control samples, was mixed with 1.0 ml of buffer solution and incubated for 60 min at 37° C. in a water bath. After the addition of 1.0 ml of chromogen solution, the samples were kept at room temperature for 20 minutes for the reaction to proceed and 10 ml NaOH was added. The optical density was red at 546 nm after 5 min. To the blank, serum was added after the addition of chromogen solution.
(ALKALINE PHOSPHATASE), Reference: Klaus Walter and Schutt C. (1974). Acid and alkaline phosphatase in serum. In: Methods of Enzymatic Analysis. Eds. Hans Ulrich Bergmeyer, Verlag ChemieWeinheim, Academic press, Inc. New York, 2nd Edition, Vol. 2, pp. 855-64.
Alkaline phosphatase activity measurement is based on the ability of the enzyme to hydrolyze p-nitrophenol phosphate under alkaline conditions. The cleaved product p-nitrophenol is yellow in alkaline solution and is measured at 400-420 nm (Klaus and Schutt, 1974). 2.0 ml of buffered substrate was taken in the tubes ‘Test’ ‘Control’ and ‘Blank’ followed by addition of serum and distilled water (0.1 ml) in ‘Test’ and ‘Blank’ respectively and incubated in a water bath for 30 minutes at 25° C. After incubation sodium hydroxide was added (0.25 N, 2 ml) to all the tubes, which was followed by serum (0.1 ml) to the tubes marked ‘Control’. The yellow colour formed was measured spectrophotometrically against blank at 410 nm.
[BILIRUBIN (BRBN)], Reference: Malloy H T and Evelyn K A (1937). The determination of bilirubin with photoelectric colorimeter. Journal of Biological Chemistry 119: 481-490.
Serum bilirubin was estimated by the method of Malloy and Evelyn (1937). In the two sets of test tubes marked ‘Test’ and ‘Control’, serum (0.2 ml) and distilled water (1.8 ml) were added. To the tubes marked ‘Test’ and ‘Standard’ diazo reagent (0.5 ml) was added. To the test tubes marked ‘Control’ and ‘Blank’ diazo blank (0.5 ml) was added. Finally methanol (2.5 ml) was added into each test tube. The tubes were mixed and allowed to stand for 30 minutes in dark. The tubes were read after 10 minutes at 540 nm.

C=C(C)[C@@H](CC=C(C)C)C[C@@]12C[C@@H](CC=C(C)C)C(C)(C)[C@@](CC=C(C)C)(C(=O)C(C(=O)c3ccc(O)c(O)c3)=C1O)C2=O [Garcinol]
Average Protection (1.25 mg/kg p.o.): 12.63%
Average Protection (2.50 mg/kg p.o.): 24.99%
Average Protection (5.00 mg/kg p.o.): 38.07%
Average Protection (10.00 mg/kg p.o.): 36.87%
ALP percent change (1.25 mg/kg p.o.): (10.79) %
ALT percent change (1.25 mg/kg p.o.): (12.84) %
AST percent change (1.25 mg/kg p.o.): (14.95) %
Bilirubin percent change (1.25 mg/kg p.o.): (11.96) %
ALP (1.25 mg/kg p.o.): 78.49 ± 6.58 μmol/min/lt
ALT (1.25 mg/kg p.o.): 1272.50 ± 109.19 μmol/min/lt
AST (1.25 mg/kg p.o.): 746.81 ± 36.93 μmol/min/lt
Bilirubin (1.25 mg/kg p.o.): 1.03 ± 0.04 mg %
ALP percent change (2.50 mg/kg p.o.): (20.08) %
ALT percent change (2.50 mg/kg p.o.): (29.65) %
AST percent change (2.50 mg/kg p.o.): (26.32) %
Bilirubin percent change (2.50 mg/kg p.o.): (23.93) %
ALP (2.50 mg/kg p.o.): 70.32 ± 3.89 μmol/min/lt
ALT (2.50 mg/kg p.o.): 1027.07 ± 68.26 μmol/min/lt
AST (2.50 mg/kg p.o.): 646.90 ± 50.53 μmol/min/lt
Bilirubin (2.50 mg/kg p.o.): 0.89 ± 0.05 mg %
ALP percent change (5.00 mg/kg p.o.): (32.73) %
ALT percent change (5.00 mg/kg p.o.): (43.24) %
AST percent change (5.00 mg/kg p.o.): (42.98) %
Bilirubin percent change (5.00 mg/kg p.o.): (33.33) %
ALP (5.00 mg/kg p.o.): 59.19 ± 4.45 μmol/min/lt
ALT (5.00 mg/kg p.o.): 828.59 ± 46.56 μmol/min/lt
AST (5.00 mg/kg p.o.): 500.66 ± 49.22 μmol/min/lt
Bilirubin (5.00 mg/kg p.o.): 0.78 ± 0.04 mg %
ALP percent change (10.00 mg/kg p.o.): (32.15) %
ALT percent change (10.00 mg/kg p.o.): (38.94) %
AST percent change (10.00 mg/kg p.o.): (40.50) %
Bilirubin percent change (10.00 mg/kg p.o.): (35.89) %
ALP (10.00 mg/kg p.o.): 59.70 ± 3.69 μmol/min/lt
ALT (10.00 mg/kg p.o.): 891.36 ± 45.72 μmol/min/lt
AST (10.00 mg/kg p.o.): 522.43 ± 57.50 μmol/min/lt
Bilirubin (10.00 mg/kg p.o.): 0.75 ± 0.04 mg %
